Laboratory results published in article PMC10156859, “Unveiling an indole alkaloid diketopiperazine biosynthetic pathway that features a unique stereoisomerase and multifunctional methyltransferase” (Nature Communications, 2023).
Like-named read-outs stand apart in the source and are kept apart here.

System: T1, NozMT
T1 construct: N-terminal hexahistidine-tagged, codon-optimized synthetic gene in pQE31, E. coli M15(pREP4), Ni-NTA purified
Assay: initial rates, HPLC-UV […] nm, Michaelis-Menten fit
Format: biochemical, Nocardiopsis sp. CMB-M0232
Details: 2 mM SAM, 10 μM enzyme, 40 mM Tris pH 7.5, 200 mM NaCl, 1% DMSO, 37 °C

Compound | Km (N1' methylation, read-out: apparent average Km) | Km (C3 methylation, read-out: apparent Km)
CC(C)=CC[C@]12C[C@@H]3C(=O)N[C@H](Cc4c[nH]c5ccccc45)C(=O)N3[C@H]1Nc1ccccc12 [compound 6, cyclo-D-Trp-C3'-prenyl-D-Trp] | 146 µM | –
CC(C)=CC[C@]12C[C@@H]3C(=O)N[C@H](Cc4c[nH]c5ccccc45)C(=O)N3[C@H]1N(C)c1ccccc12 [compound 7, cyclo-D-Trp-N1'-methyl-C3'-prenyl-D-Trp] | – | 606 µM
